Data as given in patent publication US7022699B2, “Cyclohexenyl phenyl diazepines vasopressin and oxytocin receptor modulators” (Wyeth, priority 2001, dated 2006).

Key:
[1] = molecular target: T1, human vasopressin V1a receptor subtype (Homo sapiens, UniProt P37288); assay: Vasopressin binding in CHO cell membranes expressing human vasopressin V1a subtype receptors ([3H]Manning ligand); conditions: for inhibition at 0.1 µM: 100 nM, values without parentheses; for IC50: values in parentheses
T1 construct: host or cells: CHO cells, stably transfected (pZeoSV vector for the Thibonnier cells); membranes
Source text: Vasopressin Binding in Chinese Hamster Ovary Cell Membranes Expressing Human Vasopressin V1a Subtype Receptors
Chinese hamster ovary cells (CHO cells) stably transfected with the human vasopressin V1a subtype receptors were either obtained from Biosignal Inc., 1744 rue Williams, Montreal, Quebec, Canada or obtained from M. Thibonnier, Case Western Reserve University School of Medicine, Cleveland, Ohio. A. Passaging and Amplification of Cells: CHO cells transfected with the human vasopressin V1a subtype receptors obtained from M. Thibonnier (pZeoSV vector) are allowed to grow to confluency (approx. >90%) in T-150 flasks under sterile conditions, in a cell culture medium of F-12 Nutrient Mixture (HAM) with L-glutamine (Gibco Cat. #11765-054) containing 15 mM HEPES (Gibco Cat. #15630-080), 1% antibiotic/antimycotic (add 5 mL 100×, Gibco Cat. #15240-062 per 500 mL F-12), 250 μg/mL Zeocin (add 1.25 mL of 100 mg/mL Invitrogen R-250-01 per 500 mL F-12) and 10% Fetal Bovine Serum (Qualified, heat inactivated, Gibco Cat. #16140-063). The medium is removed by aspiration and the cells are washed with 10 mL of Hank's Balanced Salt solution (Gibco Cat. #14175-095). The salt solution is removed by aspiration and the cells are trypsinized with 5 mL of trypsin-EDTA (0.05% trypsin, 0.53 mM EDTA-4Na, Gibco Cat. #25300-070) for 1 min. The trypsin is removed by aspiration and the cells dislodged by tapping. Cell Culture medium (eg, 30 mL for 1:30 split) is immediately added and mixed well to inactivate trypsin. 1 mL of detached cells is added to new culture flasks containing fresh cell culture medium (eg, into 25 mL per T-150 flask), and mixed gently. The cells are incubated at 37° C. in 5% CO2. The medium is changed at 3 to 4 days interval (or as appropriate). The cells grow to confluency (approx. >75%–95%) within 7–8 days. All steps are done under sterile conditions. B. Membrane Preparation: The cells are washed twice gently with Hank's Balanced Salt solution (e.g.,. use 10 mL per T-150 flask). The excess is removed and the cells are bathed for 15–30 min. in an enzyme-free Cell Dissociation Buffer (e.g. use 8 mL Hank's Based, Gibco Cat. #13150-016 per T-150 flask) until the cells are loosened. The contents are transferred to centrifuge tubes (50 mL size) kept in ice bath. All subsequent steps are done at 4° C. The tubes are centrifuged at 300×g for 15 min (1380 rpm on SORVAL, Model RT6000D, using rotor for 50 mL tubes). The supernatant is discarded and the cells suspended in homogeneizing buffer (10 mM Tris-HCl containing 0.25 M sucrose and 1 mM EDTA, pH 7.4) ensuring that the volume of the buffer is about ten times the volume of the cell pellet. The cells are pooled into a centrifuge tube (50 mL) and homogenized with Polytron at setting 6 for 10 sec. The homogenate is transferred into a Potter-Elvjehm homogenizer and homogenized with 3 strokes. The homogenate is centrifuged at 1500×g for 10 min at 4° C. (3100 rpm using SORVAL, model RT6000D, using rotor for 50 mL tubes). The pellet is discarded. The supernatant is centrifuged at 100,000×g for 60 min. at 4° C. (Beckman L8-80M ultracentrifuge; spin at 37,500 rpm with rotor type 70 Ti for 50 mL tubes; 38,000 rpm with type 80Ti for 15 mL tubes; or 35,800 rpm with rotor type 45Ti). The supernantant is discarded and the pellet suspended in 3 to 4 mL of Tris buffer (50 mM TRIS-HCl, pH 7.4). The protein content is estimated by the Bradford or Lowry method. The volume of the membrane suspension is adjusted with the membrane buffer (50 mM Tris-HCl containing 0.1% BSA and 0.1 mM PMSF) to give 3.0 mg/mL (or as appropriate) of protein. The membranes are aliquoted and stored at −70° C. C. […]

T1 sequence (P37288 whole entry): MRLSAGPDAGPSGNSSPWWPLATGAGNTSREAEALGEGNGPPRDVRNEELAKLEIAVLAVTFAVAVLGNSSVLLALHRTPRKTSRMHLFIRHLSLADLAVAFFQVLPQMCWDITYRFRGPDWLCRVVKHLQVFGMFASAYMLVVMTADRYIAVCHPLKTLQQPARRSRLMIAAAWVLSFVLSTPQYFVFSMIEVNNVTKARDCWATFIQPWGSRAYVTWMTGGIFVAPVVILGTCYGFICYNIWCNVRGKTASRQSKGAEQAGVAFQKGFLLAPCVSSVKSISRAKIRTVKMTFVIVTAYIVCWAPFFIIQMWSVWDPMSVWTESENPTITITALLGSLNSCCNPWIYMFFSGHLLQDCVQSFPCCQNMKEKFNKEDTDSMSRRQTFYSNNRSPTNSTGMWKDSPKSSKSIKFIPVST

Row | melting point [°C] | inhibition at 0.1 µM [1] [%] | IC50 [1] [nM] | SMILES
1 | 119 to 120 | – | 45.7 | CC1=C(c2ccc(C(=O)N3Cc4cccn4Cc4ccccc43)cc2)CCCC1 [Example 7, (10,11-Dihydro-5H-pyrrolo[2,1-c][1,4]benzodiazepin-10-yl)-[4-(2-methyl-cyclohex-1-en-1-yl)-phenyl]-methanone]
2 | 176 to 177 | 48 | – | Cc1cc(C(=O)N2Cc3cccn3Cc3ccccc32)ccc1C1=CC(=O)CCC1 [Example 39, 3-[4-(10,11-Dihydro-5H-pyrrolo[2,1-c][1,4]benzodiazepine-10-carbonyl)-2-methyl-phenyl]-cyclohex-2-en-1-one]
3 | 205 to 207 | 49 | – | O=C1C=C(c2ccc(C(=O)N3Cc4cccn4Cc4ccccc43)cc2)CCC1 [Example 24, 3-[4-(10,11-Dihydro-5H-pyrrolo[2,1-c][1,4]benzodiazepine-10-carbonyl)-phenyl]-cyclohex-2-en-1-one]
4 | 153 to 154 | 23 | – | CC1=C(c2ccc(C(=O)N3Cc4cccn4Cc4ccccc43)cc2)C(C)CCC1 (stereo not drawn) [Example 19, (10,11-Dihydro-5H-pyrrolo[2,1-c][1,4]benzodiazepin-10-yl)-[4-(2,6-dimethyl-cyclohex-1-en-1-yl)-phenyl]-methanone]

Second part, the molecule before the results:

Row | SMILES | melting point [°C] | inhibition at 0.1 µM [1] [%] | IC50 [1] [nM]
5 | COc1cccc(C2=C(c3ccc(C(=O)N4Cc5cccn5Cc5ccccc54)cc3C)CCCC2)c1 [Example 38, (10,11-Dihydro-5H-pyrrolo[2,1-c][1,4]benzodiazepin-10-yl)-{4-[2-(3-methoxy-phenyl)-cyclohex-1-en-1-yl]-3-methyl-phenyl}-methanone] | 91 to 94 | 5 | –
6 | COc1cc(C2=CCCc3ccccc32)c(Cl)cc1C(=O)N1Cc2cccn2Cc2ccccc21 [Example 8, 10-[5-Chloro-4-(3,4-dihydro-naphthalen-1-yl)-2-methoxybenzoyl]-10,11-dihydro-5H-pyrrolo[2,1-c][1,4]benzodiazepine] | 209 to 210 | -9 | –
7 | CC1(C)CCCC=C1c1ccc(C(=O)N2Cc3cccn3Cc3ccccc32)cc1 [Example 17, (10,11-Dihydro-5H-pyrrolo[2,1-c][1,4]benzodiazepin-10-yl)-[4-(6,6-dimethyl-cyclohex-1-en-1-yl)-phenyl]-methanone] | 118 | 51 | –
8 | Cc1cc(C(=O)N2Cc3cccn3Cc3ccccc32)ccc1C1=CC(C)(C)CC(C)(C)C1 [Example 37, (10,11-Dihydro-5H-pyrrolo[2,1-c][1,4]benzodiazepin-10-yl)-[3-methyl-4-(3,3,5,5-tetramethyl-cyclohex-1-en-1-yl)-phenyl]-methanone] | 158 | 10 | –
9 | CC1(C)C=C(c2ccc(C(=O)N3Cc4cccn4Cc4ccccc43)cc2)CC(C)(C)C1 [Example 23, (10,11-Dihydro-5H-pyrrolo[2,1-c][1,4]benzodiazepin-10-yl)-[4-(3,3,5,5-tetramethyl-cyclohex-1-en-1-yl)-phenyl]-methanone] | 142 to 143 | -10 | –
10 | CC1=C(c2ccc(C(=O)N3Cc4cccn4Cc4ccccc43)cc2C)C(C)CCC1 (stereo not drawn) [Example 33, (10,11-Dihydro-5H-pyrrolo[2,1-c][1,4]benzodiazepin-10-yl)-[4-(2,6-dimethyl-cyclohex-1-en-1-yl)-3-methyl-phenyl]-methanone] | 133 to 135 | 6 | –
11 | COc1cc(C2=CCCCC2)c(Cl)cc1C(=O)N1Cc2cccn2Cc2ccccc21 [Example 1, 10-(5-Chloro-4-cyclohex-1-en-1-yl-2-methoxybenzoyl)-10,11-dihydro-5H-pyrrolo[2,1-c][1,4]benzodiazepine] | 92 to 98 | – | 232
12 | Cc1cc(C(=O)N2Cc3cccn3Cc3ccccc32)ccc1C1=CCCCC1C (stereo not drawn) [Example 29, (10,11-Dihydro-5H-pyrrolo[2,1-c][1,4]benzodiazepin-10-yl)-[3-methyl-4-(6-methyl-cyclohex-1-en-1-yl)-phenyl]-methanone] | 132 to 133 | 27 | –
